{"source": "ChEMBL document CHEMBL3638921", "about": "“Bicyclic aryl and heteroaryl sodium channel inhibitors” (2015)", "key": {"[1]": {"target": "T1, Sodium channel protein type 9 subunit alpha (Homo sapiens, UniProt Q15858)", "T1 sequence (Q15858 whole entry)": "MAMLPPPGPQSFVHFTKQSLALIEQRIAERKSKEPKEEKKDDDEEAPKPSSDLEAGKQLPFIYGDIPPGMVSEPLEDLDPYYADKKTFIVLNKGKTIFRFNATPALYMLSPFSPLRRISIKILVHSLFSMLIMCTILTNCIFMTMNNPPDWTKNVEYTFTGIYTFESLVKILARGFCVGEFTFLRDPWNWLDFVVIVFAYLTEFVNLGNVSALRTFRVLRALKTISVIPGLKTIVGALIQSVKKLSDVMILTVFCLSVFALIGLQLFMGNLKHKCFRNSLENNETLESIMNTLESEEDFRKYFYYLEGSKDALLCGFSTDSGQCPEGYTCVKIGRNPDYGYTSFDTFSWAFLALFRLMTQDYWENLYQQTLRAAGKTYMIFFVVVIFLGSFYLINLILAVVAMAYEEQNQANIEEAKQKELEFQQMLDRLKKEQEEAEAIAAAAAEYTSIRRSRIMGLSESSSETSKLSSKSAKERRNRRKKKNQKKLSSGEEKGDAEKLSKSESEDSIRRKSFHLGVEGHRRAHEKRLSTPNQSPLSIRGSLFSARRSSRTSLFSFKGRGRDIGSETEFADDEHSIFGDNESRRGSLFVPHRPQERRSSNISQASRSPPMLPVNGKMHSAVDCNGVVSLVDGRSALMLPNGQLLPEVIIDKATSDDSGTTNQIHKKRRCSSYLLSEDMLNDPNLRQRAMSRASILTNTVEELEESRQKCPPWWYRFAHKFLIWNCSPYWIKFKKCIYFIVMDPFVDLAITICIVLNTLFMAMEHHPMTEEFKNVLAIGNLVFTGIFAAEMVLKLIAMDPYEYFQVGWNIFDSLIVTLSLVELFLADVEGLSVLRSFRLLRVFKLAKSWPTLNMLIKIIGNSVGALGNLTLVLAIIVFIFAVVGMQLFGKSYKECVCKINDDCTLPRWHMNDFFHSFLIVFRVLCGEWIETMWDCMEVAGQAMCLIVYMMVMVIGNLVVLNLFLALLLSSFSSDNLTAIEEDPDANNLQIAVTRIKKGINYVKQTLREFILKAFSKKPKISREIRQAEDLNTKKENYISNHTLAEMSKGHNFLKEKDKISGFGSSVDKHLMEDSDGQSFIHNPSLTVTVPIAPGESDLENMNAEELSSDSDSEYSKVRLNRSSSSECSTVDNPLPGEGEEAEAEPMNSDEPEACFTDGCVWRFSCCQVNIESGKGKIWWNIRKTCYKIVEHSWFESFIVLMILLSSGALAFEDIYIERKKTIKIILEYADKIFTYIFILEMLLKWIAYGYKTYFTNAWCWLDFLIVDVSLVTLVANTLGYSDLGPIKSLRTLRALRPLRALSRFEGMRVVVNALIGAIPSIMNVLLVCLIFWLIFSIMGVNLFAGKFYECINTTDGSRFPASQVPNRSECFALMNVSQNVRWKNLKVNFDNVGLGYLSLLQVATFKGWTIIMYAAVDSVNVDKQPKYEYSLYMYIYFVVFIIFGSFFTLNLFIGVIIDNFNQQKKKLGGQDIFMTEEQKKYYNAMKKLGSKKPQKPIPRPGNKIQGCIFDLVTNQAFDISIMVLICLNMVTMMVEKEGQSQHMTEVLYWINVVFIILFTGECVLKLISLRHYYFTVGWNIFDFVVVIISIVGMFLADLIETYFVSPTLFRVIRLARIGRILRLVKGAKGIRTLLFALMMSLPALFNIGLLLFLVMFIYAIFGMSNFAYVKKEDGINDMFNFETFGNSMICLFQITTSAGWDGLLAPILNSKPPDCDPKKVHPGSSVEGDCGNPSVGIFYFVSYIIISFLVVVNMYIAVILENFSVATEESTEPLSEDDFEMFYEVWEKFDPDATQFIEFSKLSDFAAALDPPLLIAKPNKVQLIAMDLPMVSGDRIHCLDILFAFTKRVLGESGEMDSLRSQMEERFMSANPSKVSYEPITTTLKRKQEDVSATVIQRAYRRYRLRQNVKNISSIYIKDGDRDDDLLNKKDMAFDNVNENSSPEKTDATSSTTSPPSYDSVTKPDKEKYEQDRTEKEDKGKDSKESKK", "assay": "In Vitro Assay: 293 Cells stably transfected with either Nav 1.7 or Nav 1.5 were recorded in population patch-clamp mode with the IonWorks Quattro automated electrophysiology system in accordance with the manufacturer's specifications (Molecular Devices, LLC, Sunnyvale, Calif.). Sodium channel currents were measured in response to a train of depolarizations that induced successively greater inactivation.Cells were held at -110 mV for three seconds (Nav 1.7) or half a second (Nav 1.5) from a holding voltage of -15 mV, then put through a series of 26 pulses of 150 msec duration to -20 mV at a frequency of 5 Hz. Cells were then left unclamped for a period of 3 to 8 minutes while a single concentration of test compound was added. Cells were then reclamped and put through the same voltage protocol. Current at the end of the 26th pulse to -20 mV was subtracted from the peak current evoked by the 26th pulse to -20 mV to correct for leak current."}, "[2]": {"target": "T1, Sodium channel protein type 9 subunit alpha", "assay": "In Vitro PX Assay: 293 cells stably transfected with human Nav1.7 were recorded in whole cell voltage clamp mode with the PatchXpress automated electrophysiology system (Molecular Devices, LLC, Sunnyvale, Calif.). Compound effects were measured on a partially inactivated state of the sodium channel. Cells were clamped to a holding potential yielding 20 to 50% inactivation. To elicit sodium current, channels were activated by pulsing to −10 mV for 20 msec. This voltage protocol was repeated at a rate of 0.1 Hz throughout the experiment. A single concentration of test compound was applied to cells for a duration of 3 minutes. Peak sodium current was measured at the end of the compound addition period to determine percent inhibition.", "format": "cell-based"}}, "note": "pIC50: −log10 of the molar value.", "data": [{"compound": "Nc1cc(Cl)ccc1-c1cccc2cc(S(=O)(=O)Nc3ncns3)ccc12", "values": [{"measurement": "pIC50", "setting": "[1]", "result": 6.96}]}, {"compound": "Cc1cc(Cl)ccc1-c1cccc2cc(S(=O)(=O)Nc3ncns3)ccc12", "values": [{"measurement": "pIC50", "setting": "[1]", "result": 6.72}]}, {"compound": "O=S(=O)(Nc1ncns1)c1ccc2c(-c3ccc(Cl)cc3)cccc2c1", "values": [{"measurement": "pIC50", "setting": "[1]", "result": 6.72}]}, {"compound": "O=S(=O)(Nc1ncns1)c1ccc2c(-c3ccc(Cl)cc3F)cccc2c1", "values": [{"measurement": "pIC50", "setting": "[1]", "result": 6.68}]}, {"compound": "O=S(=O)(Nc1ncns1)c1ccc2c(-c3ccc(C(F)(F)F)cc3F)cccc2c1", "values": [{"measurement": "pIC50", "setting": "[1]", "result": 6.68}]}, {"compound": "O=S(=O)(Nc1ncns1)c1ccc2c(-c3ccc(C(F)(F)F)cc3)cccc2c1", "values": [{"measurement": "pIC50", "setting": "[1]", "result": 6.37}]}, {"compound": "O=S(=O)(Nc1ncns1)c1ccc2c(-c3ccc(Cl)cc3Cl)nccc2c1", "values": [{"measurement": "pIC50", "setting": "[1]", "result": 7.15}]}, {"compound": "O=S(=O)(Nc1ncns1)c1ccc2c(N3CCC3c3ccccc3)cccc2c1", "note": "(stereo not given)", "values": [{"measurement": "pIC50", "setting": "[1]", "result": 5.41}, {"measurement": "pIC50", "setting": "[2]", "result": 4.98}]}, {"compound": "CN1CCC(c2cc(C(F)(F)F)ccc2-c2cccc3cc(S(=O)(=O)Nc4ncc(F)s4)ccc23)CC1", "values": [{"measurement": "pIC50", "setting": "[1]", "result": 6.82}, {"measurement": "pIC50", "setting": "[2]", "result": 6.55}]}, {"compound": "COc1cc(Cl)ncc1-c1nccc2cc(S(=O)(=O)Nc3ccncn3)ccc12", "values": [{"measurement": "pIC50", "setting": "[1]", "result": 6.34}, {"measurement": "pIC50", "setting": "[2]", "result": 4.74}]}, {"compound": "O=S(=O)(Nc1ccncn1)c1ccc2c(-c3cc(C(F)(F)F)ccc3F)nccc2c1", "values": [{"measurement": "pIC50", "setting": "[1]", "result": 6.24}, {"measurement": "pIC50", "setting": "[2]", "result": 4.97}]}, {"compound": "COc1cc(C)ccc1-c1nccc2cc(S(=O)(=O)Nc3nccs3)ccc12", "values": [{"measurement": "pIC50", "setting": "[2]", "result": 6.41}]}, {"compound": "O=S(=O)(Nc1nccs1)c1ccc2c(-c3ccc(F)cc3Oc3cccnn3)nccc2c1", "values": [{"measurement": "pIC50", "setting": "[2]", "result": 4.87}]}, {"compound": "O=S(=O)(Nc1nccs1)c1ccc2c(N3CCN(c4ccc(Cl)c(Cl)c4)CC3)nccc2c1", "values": [{"measurement": "pIC50", "setting": "[2]", "result": 4.96}]}, {"compound": "COc1cc(C#N)ccc1-c1nncc2cc(S(=O)(=O)Nc3nccs3)ccc12", "values": [{"measurement": "pIC50", "setting": "[1]", "result": 6.59}, {"measurement": "pIC50", "setting": "[2]", "result": 5.91}]}, {"compound": "Cc1noc(C)c1-c1nccc2cc(S(=O)(=O)Nc3ccncn3)ccc12", "values": [{"measurement": "pIC50", "setting": "[1]", "result": "< 5.00"}]}, {"compound": "Cc1cnc(OCCOc2ccccc2)c(-c2nccc3cc(S(=O)(=O)Nc4nccs4)ccc23)c1", "values": [{"measurement": "pIC50", "setting": "[2]", "result": 5.29}]}, {"compound": "COc1cc(-c2cccnc2)ccc1-c1nccc2cc(S(=O)(=O)Nc3ccncn3)ccc12", "values": [{"measurement": "pIC50", "setting": "[2]", "result": 5.27}]}, {"compound": "O=S(=O)(Nc1nccs1)c1ccc2c(-c3ccc(C(F)(F)F)cc3Cl)ncnc2c1", "values": [{"measurement": "pIC50", "setting": "[2]", "result": 6.01}]}, {"compound": "O=S(=O)(Nc1ccncn1)c1ccc2c(-c3ccc(-c4cccc(F)c4)cc3)nccc2c1", "values": [{"measurement": "pIC50", "setting": "[2]", "result": 5.35}]}]}
